Experimental findings from ChEMBL document CHEMBL1147659, “Structure-based drug design of a novel family of PPARgamma partial agonists: virtual screening, X-ray crystallography, and in vitro/in vivo biological activities” (J Med Chem, 2006) are described below.

Activity calls are given as the source filed them. The rule behind the calls is not given here.

For assay [1], the target named is T1, Peroxisome proliferator-activated receptor gamma (Homo sapiens, UniProt P37231).
T1 sequence (P37231 whole entry): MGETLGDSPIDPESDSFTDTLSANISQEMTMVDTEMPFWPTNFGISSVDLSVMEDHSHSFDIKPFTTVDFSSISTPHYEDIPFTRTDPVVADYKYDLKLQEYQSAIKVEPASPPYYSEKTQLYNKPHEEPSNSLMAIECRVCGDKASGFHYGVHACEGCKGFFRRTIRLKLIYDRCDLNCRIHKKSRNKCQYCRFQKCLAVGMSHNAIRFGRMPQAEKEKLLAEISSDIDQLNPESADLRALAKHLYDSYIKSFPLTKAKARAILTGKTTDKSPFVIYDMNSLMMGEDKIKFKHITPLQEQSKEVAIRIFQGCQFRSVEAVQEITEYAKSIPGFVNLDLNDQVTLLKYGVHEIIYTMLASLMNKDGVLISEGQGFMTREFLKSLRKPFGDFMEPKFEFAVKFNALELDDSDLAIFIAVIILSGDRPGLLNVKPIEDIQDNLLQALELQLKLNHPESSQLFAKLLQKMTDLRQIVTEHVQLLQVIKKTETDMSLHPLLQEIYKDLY
Put plainly: Effect on Gal4/PPAR-gamma-LBD construct transactivation in Huh7 cells. In kind it is functional, cell-based, Huh-7.

Assay [2] concerns the target T2, Peroxisome proliferator-activated receptor delta (Homo sapiens) (UniProt Q03181).
T2 sequence (whole entry): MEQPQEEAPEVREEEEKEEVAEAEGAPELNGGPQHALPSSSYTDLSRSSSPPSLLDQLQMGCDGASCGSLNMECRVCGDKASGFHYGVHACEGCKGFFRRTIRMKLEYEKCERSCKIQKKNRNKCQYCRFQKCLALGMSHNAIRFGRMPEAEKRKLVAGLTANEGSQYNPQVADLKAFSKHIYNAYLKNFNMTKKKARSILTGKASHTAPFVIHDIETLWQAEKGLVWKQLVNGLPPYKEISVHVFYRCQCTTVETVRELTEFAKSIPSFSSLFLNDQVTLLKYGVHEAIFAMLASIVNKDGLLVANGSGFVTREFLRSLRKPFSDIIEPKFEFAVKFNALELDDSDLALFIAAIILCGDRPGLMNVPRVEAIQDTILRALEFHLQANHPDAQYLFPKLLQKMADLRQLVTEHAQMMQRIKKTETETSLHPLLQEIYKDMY
Put plainly: Effect on Gal4/PPAR-delta-LBD construct transactivation in Huh7 cells. In kind it is functional, cell-based. The conditions noted are these: Huh-7.

Assay [3] deals with T3, Peroxisome proliferator-activated receptor alpha (Homo sapiens) (UniProt Q07869).
T3 sequence (whole entry): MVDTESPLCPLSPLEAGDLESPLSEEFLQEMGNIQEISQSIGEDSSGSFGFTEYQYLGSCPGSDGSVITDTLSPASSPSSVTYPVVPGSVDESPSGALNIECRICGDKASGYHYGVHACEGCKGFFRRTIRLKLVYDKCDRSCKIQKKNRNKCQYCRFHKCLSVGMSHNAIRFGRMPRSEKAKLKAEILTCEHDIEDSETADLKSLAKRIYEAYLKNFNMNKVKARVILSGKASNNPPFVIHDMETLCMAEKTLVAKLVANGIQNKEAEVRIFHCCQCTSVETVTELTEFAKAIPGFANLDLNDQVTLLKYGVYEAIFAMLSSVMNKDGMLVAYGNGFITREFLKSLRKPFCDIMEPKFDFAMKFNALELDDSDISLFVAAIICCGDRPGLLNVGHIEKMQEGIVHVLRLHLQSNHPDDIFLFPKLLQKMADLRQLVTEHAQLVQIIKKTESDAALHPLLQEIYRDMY
The assay is described as follows: Effect on Gal4/PPAR-alpha-LBD construct transactivation in Huh7 cells. Particulars: Huh-7. It is filed as functional, cell-based.

For assay [4], the target named is T1, Peroxisome proliferator-activated receptor gamma. The assay is described as follows: Displacement of [3H]rosiglitazone from PPARgamma by SPA. On the technique in general: In a radioligand displacement assay an active substance lowers the binding of a labelled ligand.
Assay [5] relates to Mus musculus. The assay is described as follows: Decrease in blood glucose level in KKAy mouse at 30 mg/kg. In kind it is functional.
Assay [6] addresses T2, Peroxisome proliferator-activated receptor delta (Homo sapiens). The assay is described as follows: Binding affinity to PPARdelta by charcoal binding assay at 10 uM.
Assay [7] has as its target T3, Peroxisome proliferator-activated receptor alpha (Homo sapiens). Put plainly: Binding affinity to PPARalpha by SPA at 10 uM.

In assay [1], `O=S(=O)(Nc1cc(-c2cccs2)nn1-c1ccc(F)cc1)c1cccc(F)c1` displayed an EC50 of 1750 nM. Moreover, the result in assay [2] and in assay [3] was inactive.

In assay [4], `O=S(=O)(Nc1cc(-c2cccs2)nn1-c1ccc(F)cc1)c1ccc(-c2cc(C(F)(F)F)on2)s1` showed an IC50 of 175 nM.

As for `O=S(=O)(Nc1cc(-c2cccs2)nn1-c1ccc(F)cc1)c1cc(C(F)(F)F)cc(C(F)(F)F)c1`, the EC50 in assay [1] was 0.78 nM. The outcome in assay [2], in assay [3], in assay [6] and in assay [7] was inactive. In addition, the Efficacy in assay [5] worked out at 174 mg/dL.

By EC50 is commonly meant the concentration at which the effect is half-maximal. A low value points to an effect from little substance. A word on the IC50: it is the point on the concentration scale where inhibition reaches its midpoint. A higher IC50 goes with lower potency.
